Measured values published in patent US20250255850A1, “PHARMACEUTICAL COMPOSITIONS FOR TREATING NEUROLOGICAL CONDITIONS” (YISSUM RESEARCH DEVELOPMENT COMPANY OF THE HEBREW …, priority 2021, published 2025).
Each block holds one substance with its values, some of them ahead of it.

Key:
SHSY-5Y cells = test: Immunofluorescence of 3-nitrotyrosine and synaptophysin in SHANK3-silenced SHSY-5Y cells; format: cell-based, human
Method: A cell culture model for ASD was developed by silencing SHANK3 with an siRNA (5-3 RNA)-CGAUGAUAAGCAGUUUGCAAAGCUU (SEQ ID NO: 3) in the neuronal cell line SHSY-5Y cells, followed by silencing with of nNOS using the following RNA (5-3) CCUUGUCCAACAUGCUCCUAGAGAU (SEQ ID NO: 4).
SHSY-5Y Cells (with or without treatment) were fixed post treatment in 4% paraformaldehyde, incubated with the Primary rabbit MAP2+ primary mouse monoclonal 3-nitrotyrosine (FIGS. 9A-B) and with Primary rabbit monoclonal synaptophysin+primary mouse Map2 (FIGS. 9C-D). Thereafter, cells were incubated with anti-mouse secondary Alexa fluor488 (green)/594 (red), and anti-rabbit secondary Alexa fluor 488 (green)/594 (red), conjugated secondary antibodies. After washing, cells were mounted with DAPI (Blue). The images were acquired using a confocal microscope. Each group contained nine independent sets of experiments (initial cell seed number—about 10^6).
To support the effect of nucleic acid silencing on a SHANK3 silenced background, the present inventors applied siRNA to nNOS on […] SHSY-5Y Cells.

C57BL/6 wild-type mice [1] = test: Novel object recognition test (NOR), SNAP-treated wild-type mice; format: in vivo, mouse
Method: (§1) Behavioral testing started after 2 hours of treatment.
Novel object recognition (see, FIG. 4A): The novel object test for object recognition and memory takes place in a white open field arena (45×45 cm). The test involves a set of two unique novel objects, each about the size of a mouse, constructed from two different materials and non-uniform in shape. The test consisted of one 10-minute habituation session, a 5-minute familiarization session and a 5-minute recognition test, each video tracked (Noldus Ethovision). During the habituation, animals were allowed to freely explore an empty open field. At the end of the session, they were shifted from the open field to a place in a temporary clean holding cage for about 2 minutes. Two identical objects were placed on the median line at 10 cm from each wall and the animal was returned to the open field and allowed to explore the objects for 5 minutes before being returned to its home cage. Next day, one familiar object and one novel object were placed in the open field to the location where the identical objects were placed during the familiarization session and the mouse was allowed to explore them for a 5-minute recognition test. […] Familiarization and recognition sessions were scored for total time spent investigating each object, the number of object interactions and the latency of the first object interaction. […]

C57BL/6 wild-type mice [2] = test: Three-chambered sociability test, SNAP-treated wild-type mice; format: in vivo, mouse
Method: as §1
Three-chambered sociability test (see, FIG. 4B): Sociability and preference for social novelty and social recognition were tested in a three-chambered apparatus. The subjected mouse was first placed in the central, neutral chamber and allowed to explore for 10 minutes with all the doors closed. Next, doors were opened and the mouse was allowed to freely explore the other two empty chambers (1 and 2) for an additional 10 minutes. Lack of side preference was confirmed during this habituation.
Two cylindrical wire cages were placed, one in chamber 1 and the other in chamber 2. For the sociability test, the test animal was introduced to the middle chamber and allowed to adjust for 5 minutes. Then, an unfamiliar mouse was introduced into a wire cage in one of the side-chambers, and the other side-chamber remained empty. The time spent by the test mouse exploring the wire cage with an unfamiliar mouse inside was recorded for 5 minutes.
Next, to examine social memory, novel mice is introduced to the empty cage and the tested mice is examined whether they are interested in the novel mice compared to the familiar.
S-nitroso-N-acetylpenicillamines (SNAP), is an NO donor that increases the NO availability, subsequently leading to nitrosative stress and aberrant SNO signaling. […] To examine the potential effect of SNAP administration on mice behaviors, a novel object recognition test (NOR) and sociability test were performed (See, FIGS. 4A-B), and the obtained data are presented in FIGS. 2A-B, respectively.
A three-chamber sociability test was conducted as in Example 2 (see also FIG. 4B), to evaluate the interest of the mice to engage in social interaction with a stranger mouse. Generally, the mice prefer to spend more time with another mouse (sociability), and the mice have the tendency to investigate a novel intruder more than a familiar one (social novelty). […]

C57BL/6 wild-type mice [3] = test: Elevated plus maze test, SNAP-treated wild-type mice; format: in vivo, mouse
Method: as §1
Elevated plus maze test (see, FIG. 4C): The elevated plus-maze consisted of four arms (30×5 cm), two open, and the other two closed. The platform was made of white plexiglass. The apparatus was elevated 45 cm above the floor. The test, described in, was initiated by placing the mouse on the central platform of the maze, facing one of the open arms, and letting it move freely. Each session lasted 5 min. The time spent in the close and open arms was recorded.
An elevated plus maze test (see, FIG. 4C) was performed to evaluate the anxiety-like behaviors among the mice, typically the anxiety quantified as the time spent in the closed arms.

C57BL/6 wild-type mice [4] = test: Marble burying test, SNAP-treated wild-type mice; format: in vivo, mouse; settings: SNAP IP 20 mg/kg/day for 10 days; vs WT
Method: as §1
Marble Burying test (see, FIG. 4D): The marble-burying assay is a tool for assessing either anxiety-like and/or repetitive-like behaviors in mice. Subjects were tested in a regular clean cage (28 cm long×18 cm wide×12 cm high) with 3 cm of fresh bedding. The subject was first placed in the empty cage for a 5-min habituation. It was then temporary placed in an empty clean cage while 20 dark blue glass marbles (15 mm in diameter) were positioned over the bedding equidistant in a 4×5 arrangement to cover the whole cage surface. The subject was then returned in the test cage and allowed to explore and bury the marbles during a 15-min session that was videotaped. At the end of the session the subject was removed and the number of marbles buried (50% marble covered by bedding material) was recorded.
A marble burying test (as shown in FIG. 4D) was utilized as an indication for repetitive behaviors and restricted interests.

[5] = SNAP IP 20 mg/kg/day for 7 days, wild-type mice vs control group
[6] = SNAP IP 20 mg/kg/day for 10 days, C57BL/6 WT mice

Substance: siRNA to nNOS: RNA (5-3) CCUUGUCCAACAUGCUCCUAGAGAU (SEQ ID NO: 4) silencing nNOS (CCUUGUCCAACAUGCUCCUAGAGAU; listed as RNA, chemistry not given here)
synaptophysin protein expression (immunofluorescence) (SHSY-5Y cells; nNOS knockdown in the SHANK3 si-RNA group (double knockdown)): recovery in synaptophysin protein expression
nitrotyrosine production (immunofluorescence) (SHSY-5Y cells; nNOS silencing in the SHANK3 si-RNA group (double knockdown)): reduction in nitrotyrosine production

Substance: SHANK3 si-RNA: siRNA CGAUGAUAAGCAGUUUGCAAAGCUU (SEQ ID NO: 3) silencing SHANK3 (CGAUGAUAAGCAGUUUGCAAAGCUU; listed as RNA, chemistry not given here)
synaptophysin expression (immunofluorescence) (SHSY-5Y cells; SHSY-5Y cells treated with SHANK3 si-RNA alone): downregulated

solubility in DMSO (Solubility in DMSO): 20 mg/mL
Substance: S-nitroso-N-acetylpenicillamines [SNAP]
preference for the novel object (NOR test) (C57BL/6 wild-type mice [1]; [5]): failed to display a preference for the novel object
preference for the novel object (NOR test) (C57BL/6 wild-type mice [1]; [6]): failed to display a preference for the novel object
preference to engage in social interaction (sociability test) (C57BL/6 wild-type mice [2]; [5]): did not exhibit any preference to engage in social interaction
preference for novel mouse (S2) vs familiar (S1) (second session, social novelty) (C57BL/6 wild-type mice [2]; [6]): did not exhibit any significant preference to engage in social interaction with the mice
time interacting with stranger mouse vs empty cage (first session, sociability) (C57BL/6 wild-type mice [2]; [6]): spent more time interacting with the stranger mouse than with the empty cage
time in the closed arms (elevated plus maze) (C57BL/6 wild-type mice [3]; SNAP IP 20 mg/kg/day for 10 days, vs WT group): spent significantly more time in the closed arms compared to WT group
time spent in the open arms (elevated plus maze) (C57BL/6 wild-type mice [3]; SNAP i.p. 20 mg/kg daily for 10 days, vs WT): significantly decreased time in the open arms
number of marbles buried (C57BL/6 wild-type mice [4]): buried significantly less marbles
